According to the NIST ThermoML archive (doi:10.1021/acs.jced.5b00366):
Numbers after ± are expanded uncertainties.

Tests used:
[1] = mn = molality of the nth substance listed, in mol/kg; conditions: 102 kPa, Liquid, Vibrating tube method
[2] = xn = mol fraction of the nth substance listed; conditions: 102 kPa, Liquid, Vibrating tube method
[3] = 102 kPa, Liquid, Vibrating tube method

Work on `[Cd+2].[I-].[I-]` [cadmium iodide (CdI2)] + CCCCO yielded a mass density ([1]; 293.15 K, m1 = 0.004) of 811.57 ± 3.3 kg/m3, a mass density ([1]; 293.15 K, m1 = 0.005) of 811.75 ± 3.3 kg/m3 and a mass density ([1]; 293.15 K, m1 = 0.006) of 811.98 ± 3.3 kg/m3. For the same compound, the mass density ([1]; 293.15 K, m1 = 0.008) was 812.48 ± 3.3 kg/m3, the mass density ([1]; 293.15 K, m1 = 0.01) was 813.03 ± 3.3 kg/m3 and the mass density ([1]; 293.15 K, m1 = 0.02) was 815.24 ± 3.3 kg/m3. For the same compound, the mass density ([1]; 293.15 K, m1 = 0.05) was 822.26 ± 3.3 kg/m3, the mass density ([1]; 293.15 K, m1 = 0.08) was 830.17 ± 3.3 kg/m3 and the mass density ([1]; 298.15 K, m1 = 0.004) was 807.62 ± 3.3 kg/m3. It also gave a mass density ([1]; 298.15 K, m1 = 0.005) of 807.92 ± 3.3 kg/m3, a mass density ([1]; 298.15 K, m1 = 0.006) of 808.19 ± 3.3 kg/m3 and a mass density ([1]; 298.15 K, m1 = 0.008) of 808.94 ± 3.3 kg/m3. The mass density ([1]; 298.15 K, m1 = 0.01) was 809.67 ± 3.3 kg/m3, the mass density ([1]; 298.15 K, m1 = 0.02) was 811.39 ± 3.3 kg/m3 and the mass density ([1]; 298.15 K, m1 = 0.05) was 819.27 ± 3.3 kg/m3. For the same compound, the mass density ([1]; 298.15 K, m1 = 0.08) was 826.26 ± 3.3 kg/m3, the mass density ([1]; 303.15 K, m1 = 0.004) was 803.74 ± 3.3 kg/m3 and the mass density ([1]; 303.15 K, m1 = 0.005) was 804.06 ± 3.3 kg/m3. For the same compound, the mass density ([1]; 303.15 K, m1 = 0.006) was 804.49 ± 3.3 kg/m3, the mass density ([1]; 303.15 K, m1 = 0.008) was 805.19 ± 3.3 kg/m3 and the mass density ([1]; 303.15 K, m1 = 0.01) was 805.87 ± 3.3 kg/m3. It also gave a mass density ([1]; 303.15 K, m1 = 0.02) of 807.51 ± 3.3 kg/m3, a mass density ([1]; 303.15 K, m1 = 0.05) of 814.48 ± 3.3 kg/m3 and a mass density ([1]; 303.15 K, m1 = 0.08) of 822.32 ± 3.3 kg/m3. It also gave a mass density ([1]; 308.15 K, m1 = 0.004) of 799.64 ± 3.4 kg/m3, a mass density ([1]; 308.15 K, m1 = 0.005) of 800.2 ± 3.3 kg/m3 and a mass density ([1]; 308.15 K, m1 = 0.006) of 800.59 ± 3.3 kg/m3. For the same compound, the mass density ([1]; 308.15 K, m1 = 0.008) was 801.3 ± 3.3 kg/m3, the mass density ([1]; 308.15 K, m1 = 0.01) was 802.1 ± 3.3 kg/m3 and the mass density ([1]; 308.15 K, m1 = 0.02) was 803.62 ± 3.3 kg/m3. For the same compound, the mass density ([1]; 308.15 K, m1 = 0.05) was 810.6 ± 3.3 kg/m3 and the mass density ([1]; 308.15 K, m1 = 0.08) was 818.39 ± 3.3 kg/m3.
In the case of `CO` [methanol] + CCCCO, the mass density ([2]; 293.15 K, x2 = 0) is reported as 791.34 ± 3.2 kg/m3, the mass density ([2]; 298.15 K, x2 = 0) is reported as 786.68 ± 3.2 kg/m3 and the mass density ([2]; 303.15 K, x2 = 0) is reported as 781.96 ± 3.2 kg/m3. It also gave a mass density ([2]; 308.15 K, x2 = 0) of 777.21 ± 3.2 kg/m3.
For `CCCCO` [butan-1-ol], the mass density ([3]; 293.15 K) was 809.84 ± 3.2 kg/m3, the mass density ([3]; 298.15 K) was 806.03 ± 3.2 kg/m3 and the mass density ([3]; 303.15 K) was 802.19 ± 3.2 kg/m3. It also gave a mass density ([3]; 308.15 K) of 798.38 ± 3.2 kg/m3.
Compound `CCCCO` [butan-1-ol] + CO has a mass density ([2]; 293.15 K, x1 = 0.05) of 793 ± 3.3 kg/m3, a mass density ([2]; 293.15 K, x1 = 0.1) of 794.55 ± 3.3 kg/m3 and a mass density ([2]; 293.15 K, x1 = 0.15) of 795.82 ± 3.3 kg/m3. The mass density ([2]; 293.15 K, x1 = 0.2) was 797.09 ± 3.6 kg/m3, the mass density ([2]; 293.15 K, x1 = 0.25) was 798.29 ± 3.2 kg/m3 and the mass density ([2]; 293.15 K, x1 = 0.3) was 799.4 ± 3.2 kg/m3. The mass density ([2]; 293.15 K, x1 = 0.4) was 801.48 ± 3.3 kg/m3, the mass density ([2]; 293.15 K, x1 = 0.5) was 803.28 ± 3.2 kg/m3 and the mass density ([2]; 293.15 K, x1 = 0.6) was 804.87 ± 3.2 kg/m3. It also gave a mass density ([2]; 293.15 K, x1 = 0.7) of 806.38 ± 3.2 kg/m3, a mass density ([2]; 293.15 K, x1 = 0.8) of 807.62 ± 3.2 kg/m3 and a mass density ([2]; 293.15 K, x1 = 0.9) of 808.83 ± 3.2 kg/m3. For the same compound, the mass density ([2]; 293.15 K, x1 = 1) was 809.84 ± 3.2 kg/m3, the mass density ([2]; 298.15 K, x1 = 0.05) was 788.48 ± 3.3 kg/m3 and the mass density ([2]; 298.15 K, x1 = 0.1) was 790.15 ± 3.3 kg/m3. The mass density ([2]; 298.15 K, x1 = 0.15) was 791.52 ± 3.2 kg/m3, the mass density ([2]; 298.15 K, x1 = 0.2) was 792.81 ± 3.2 kg/m3 and the mass density ([2]; 298.15 K, x1 = 0.25) was 794.06 ± 3.2 kg/m3. For the same compound, the mass density ([2]; 298.15 K, x1 = 0.3) was 795.23 ± 3.2 kg/m3, the mass density ([2]; 298.15 K, x1 = 0.4) was 797.4 ± 3.2 kg/m3 and the mass density ([2]; 298.15 K, x1 = 0.5) was 799.27 ± 3.2 kg/m3. The mass density ([2]; 298.15 K, x1 = 0.6) was 800.94 ± 3.2 kg/m3, the mass density ([2]; 298.15 K, x1 = 0.7) was 802.48 ± 3.2 kg/m3 and the mass density ([2]; 298.15 K, x1 = 0.8) was 803.77 ± 3.2 kg/m3. It also gave a mass density ([2]; 298.15 K, x1 = 0.9) of 804.99 ± 3.2 kg/m3, a mass density ([2]; 298.15 K, x1 = 1) of 806.03 ± 3.2 kg/m3 and a mass density ([2]; 303.15 K, x1 = 0.05) of 783.92 ± 3.3 kg/m3. It also gave a mass density ([2]; 303.15 K, x1 = 0.1) of 785.69 ± 3.3 kg/m3, a mass density ([2]; 303.15 K, x1 = 0.15) of 787.15 ± 3.2 kg/m3 and a mass density ([2]; 303.15 K, x1 = 0.2) of 788.52 ± 3.2 kg/m3. For the same compound, the mass density ([2]; 303.15 K, x1 = 0.25) was 789.82 ± 3.2 kg/m3, the mass density ([2]; 303.15 K, x1 = 0.3) was 791.01 ± 3.2 kg/m3 and the mass density ([2]; 303.15 K, x1 = 0.4) was 793.26 ± 3.2 kg/m3. It also gave a mass density ([2]; 303.15 K, x1 = 0.5) of 795.21 ± 3.2 kg/m3, a mass density ([2]; 303.15 K, x1 = 0.6) of 796.94 ± 3.2 kg/m3 and a mass density ([2]; 303.15 K, x1 = 0.7) of 798.57 ± 3.2 kg/m3. It also gave a mass density ([2]; 303.15 K, x1 = 0.8) of 799.91 ± 3.2 kg/m3, a mass density ([2]; 303.15 K, x1 = 0.9) of 801.12 ± 3.2 kg/m3 and a mass density ([2]; 303.15 K, x1 = 1) of 802.19 ± 3.2 kg/m3. For the same compound, the mass density ([2]; 308.15 K, x1 = 0.05) was 779.32 ± 3.3 kg/m3, the mass density ([2]; 308.15 K, x1 = 0.1) was 781.19 ± 3.2 kg/m3 and the mass density ([2]; 308.15 K, x1 = 0.15) was 782.74 ± 3.2 kg/m3. The mass density ([2]; 308.15 K, x1 = 0.2) was 784.19 ± 3.3 kg/m3, the mass density ([2]; 308.15 K, x1 = 0.25) was 785.52 ± 3.2 kg/m3 and the mass density ([2]; 308.15 K, x1 = 0.3) was 786.78 ± 3.2 kg/m3. For the same compound, the mass density ([2]; 308.15 K, x1 = 0.4) was 789.13 ± 3.2 kg/m3, the mass density ([2]; 308.15 K, x1 = 0.5) was 791.18 ± 3.2 kg/m3 and the mass density ([2]; 308.15 K, x1 = 0.6) was 792.99 ± 3.2 kg/m3. It also gave a mass density ([2]; 308.15 K, x1 = 0.7) of 794.64 ± 3.2 kg/m3, a mass density ([2]; 308.15 K, x1 = 0.8) of 796.04 ± 3.2 kg/m3 and a mass density ([2]; 308.15 K, x1 = 0.9) of 797.29 ± 3.2 kg/m3. For the same compound, the mass density ([2]; 308.15 K, x1 = 1) was 798.38 ± 3.2 kg/m3.
In the case of `CO` [methanol], the mass density ([3]; 293.15 K) is reported as 791.34 ± 3.2 kg/m3, the mass density ([3]; 298.15 K) is reported as 786.68 ± 3.2 kg/m3 and the mass density ([3]; 303.15 K) is reported as 781.96 ± 3.2 kg/m3. It also gave a mass density ([3]; 308.15 K) of 777.21 ± 3.2 kg/m3.
`[Cd+2].[I-].[I-]` [cadmium iodide (CdI2)] + CO gave a mass density ([1]; 293.15 K, m1 = 0.004) of 792.58 ± 3.2 kg/m3, a mass density ([1]; 293.15 K, m1 = 0.005) of 792.87 ± 3.2 kg/m3 and a mass density ([1]; 293.15 K, m1 = 0.006) of 793.02 ± 3.2 kg/m3. It also gave a mass density ([1]; 293.15 K, m1 = 0.008) of 793.63 ± 3.2 kg/m3, a mass density ([1]; 293.15 K, m1 = 0.01) of 794.17 ± 3.3 kg/m3 and a mass density ([1]; 293.15 K, m1 = 0.02) of 797.09 ± 3.2 kg/m3. It also gave a mass density ([1]; 293.15 K, m1 = 0.05) of 805.07 ± 3.2 kg/m3, a mass density ([1]; 293.15 K, m1 = 0.08) of 811.5 ± 3.2 kg/m3 and a mass density ([1]; 298.15 K, m1 = 0.004) of 787.92 ± 3.3 kg/m3. The mass density ([1]; 298.15 K, m1 = 0.005) was 788.22 ± 3.3 kg/m3, the mass density ([1]; 298.15 K, m1 = 0.006) was 788.45 ± 3.3 kg/m3 and the mass density ([1]; 298.15 K, m1 = 0.008) was 789.1 ± 3.3 kg/m3. For the same compound, the mass density ([1]; 298.15 K, m1 = 0.01) was 789.72 ± 3.2 kg/m3, the mass density ([1]; 298.15 K, m1 = 0.02) was 792.37 ± 3.2 kg/m3 and the mass density ([1]; 298.15 K, m1 = 0.05) was 800.28 ± 3.2 kg/m3. The mass density ([1]; 298.15 K, m1 = 0.08) was 806.75 ± 3.2 kg/m3, the mass density ([1]; 303.15 K, m1 = 0.004) was 783.18 ± 3.2 kg/m3 and the mass density ([1]; 303.15 K, m1 = 0.005) was 783.49 ± 3.2 kg/m3. The mass density ([1]; 303.15 K, m1 = 0.006) was 783.71 ± 3.2 kg/m3, the mass density ([1]; 303.15 K, m1 = 0.008) was 784.31 ± 3.2 kg/m3 and the mass density ([1]; 303.15 K, m1 = 0.01) was 784.72 ± 3.2 kg/m3. The mass density ([1]; 303.15 K, m1 = 0.02) was 787.65 ± 3.2 kg/m3, the mass density ([1]; 303.15 K, m1 = 0.05) was 795.4 ± 3.2 kg/m3 and the mass density ([1]; 303.15 K, m1 = 0.08) was 801.87 ± 3.2 kg/m3. The mass density ([1]; 308.15 K, m1 = 0.004) was 778.43 ± 3.2 kg/m3, the mass density ([1]; 308.15 K, m1 = 0.005) was 778.74 ± 3.2 kg/m3 and the mass density ([1]; 308.15 K, m1 = 0.006) was 778.86 ± 3.3 kg/m3. For the same compound, the mass density ([1]; 308.15 K, m1 = 0.008) was 779.43 ± 3.2 kg/m3, the mass density ([1]; 308.15 K, m1 = 0.01) was 780.04 ± 3.3 kg/m3 and the mass density ([1]; 308.15 K, m1 = 0.02) was 782.94 ± 3.2 kg/m3. It also gave a mass density ([1]; 308.15 K, m1 = 0.05) of 790.79 ± 3.2 kg/m3 and a mass density ([1]; 308.15 K, m1 = 0.08) of 797.4 ± 3.2 kg/m3.
